Results on 1 molecule are retold here after US20190185417A1, “NOVEL ANTIBIOTICS” (priority 2016, published 2019).

Converted amounts (≈) assume the structure as drawn. A value given as a limit tells only on which side of the number the result lay.

Common to all, as to assay type: cell-based
In test [1] the test system is Acinetobacter baumannii (ATCC 17978). Put plainly: MIC by broth microdilution. The method, then: (§1) The antibacterial potency of the test article(s) was measured using the in vitro broth microdilution assay under assay conditions described by the Clinical and Laboratory Standards Institute. […] The test substance was dissolved in 100% DMSO, suspended completely by sonication or vortexing, diluted by 2-fold serial titrations in the same vehicle, for a total of 11 test concentrations. A 4 μL aliquot of each dilution was added to 196 μL of broth medium seeded with the organism suspension in wells of a 96 well plate (bacterial count: 2−8×10^5 colony forming units/mL final). The final volume was 200 μL in each well and the final DMSO concentration was 2 percent. Following incubation for 1 day at 36° C., the test plates were visually examined and wells were scored for growth or complete growth inhibition to define the minimum inhibitory concentration. Each test substance was evaluated in duplicate and the results were reported as the duplicate test values. Vehicle-control and an active reference agent were used as blank and positive controls, respectively. Microorganisms tested were Acinetobacter baumannii (ATCC 17978), Enterococcus faecalis (ATCC 29212), Enterococcus faecium VanA (ATCC 700221), Escherichia coli (ATCC 25922), Escherichia coli efflux defective DEL-tolC (JW5503), Heamophilus influenzae (ATCC 49247), Klebsiella pneumoniae (ATCC 43816), Pseudomonas aeruginosa (ATCC 27853), Pseudomonas aeruginosa MDR (NTUH-974), Staphylococcus aureus (ATCC 29213), Staphylococcus aureus MRSA (ATCC 33591) and Streptococcous pneumoniae (ATCC 46919). H. influenzae was grown in Haemophilus Test Medium and S. pneumoniae was grown in cation adjusted Muller-Hinton Broth II with 5% lysed horse blood. All other microorganisms were grown in cation adjusted Muller-Hinton Broth II.
(§2) The antibacterial potency of the test article(s) was measured using the in vitro broth microdilution assay under assay conditions described by the Clinical and Laboratory Standards Institute. […] The test substance was dissolved in 100% DMSO (unless stated below), suspended completely by sonication or vortexing, diluted by 2-fold serial titrations in the same vehicle, for a total of 11 test concentrations. A 4 μL aliquot of each dilution was added to 196 μL of broth medium seeded with the organism suspension in wells of a 96 well plate (bacterial count: 2−8×10^5 colony forming units/mL final). The final volume was 200 μL in each well and the final DMSO concentration was 2 percent. Following incubation, the test plates were visually examined and wells were scored for growth or complete growth inhibition to define the minimum inhibitory concentration. Each test substance was evaluated in duplicate and the results below are the duplicate test values. Vehicle-control and an active reference agent were used as blank and positive controls, respectively.
(In general: Broth dilution looks for growth in wells or tubes with falling amounts of substance.)

Test [2] has as its system Escherichia coli (ATCC 25922). As to the kind of experiment: MIC by broth microdilution. On the procedure:
as §1, §2

Test [3] relates to Escherichia coli, efflux defective DEL-tolC (JW5503). As to the kind of experiment: MIC by broth microdilution. The method, then:
as §1, §2

In test [4] the test system is Klebsiella pneumoniae (ATCC 43816). As to the kind of experiment: MIC by broth microdilution. The method, then: as §1, §2
Test [5] deals with Pseudomonas aeruginosa (ATCC 27853). Put plainly: MIC by broth microdilution. On the procedure: as §1, §2
In test [6] the test system is Pseudomonas aeruginosa, MDR (NTUH-974). As to the kind of experiment: MIC by broth microdilution. The method, then:
as §1, §2

For test [7], the system named is Enterococcus faecalis (ATCC29212). Put plainly: MIC by broth microdilution. The conditions noted are these: Table 1, Example 1. On the procedure:
as §1

Test [8] deals with Enterococcus faecium, VanA (ATCC 700221). As to the kind of experiment: MIC by broth microdilution. Conditions: Table 1, Example 1. On the procedure:
as §1

Test [9] deals with Staphylococcus aureus (ATCC 29213). As to the kind of experiment: MIC by broth microdilution. Conditions: Table 1, Example 1. The method, then:
as §1

The test system of test [10] is Staphylococcus aureus, MRSA (ATCC 33591). As to the kind of experiment: MIC by broth microdilution. Conditions: Table 1, Example 1. On the procedure: as §1
The subject of test [11] is Streptococcus pneumoniae (ATCC 49619). Put plainly: MIC by broth microdilution. The conditions noted are these: Table 1, Example 1. On the procedure: as §1
Test [12] deals with Haemophilus influenzae (ATCC 49247). As to the kind of experiment: MIC by broth microdilution. The conditions noted are these: Table 2, Example 2. The method, then:
as §2

A further test has as its system Gram-negative bacteria. Put plainly: MIC by broth microdilution, overall statement in words. The conditions noted are these: Example 1, statement in words. On the procedure: as §1, §2

As for `CN(C)Cc1ccc(/C=C/c2cc(/C=C/c3ccc(CN(C)C)cc3)cc(/C=C/c3ccc(CN(C)C)cc3)c2)cc1` [Compound 2], the MIC was determined as 16 µg/mL (≈ 28.8 µM) in test [1] (Table 1, Example 1); 16 µg/mL (≈ 28.8 µM) in [1] (Table 2, Example 2); 8 µg/mL (≈ 14.4 µM) in test [2] (Table 1, Example 1); 8 µg/mL (≈ 14.4 µM) in [2] (Table 2, Example 2); 4 µg/mL (≈ 7.2 µM) in [3] (Table 1, Example 1); 4 µg/mL (≈ 7.2 µM) in [3] (Table 2, Example 2). Also, the MIC in test [4] (Table 1, Example 1) worked out at 16 µg/mL (≈ 28.8 µM); in [4] (Table 2, Example 2), 16 µg/mL (≈ 28.8 µM); in [5] (Table 1, Example 1), 64 µg/mL (≈ 115 µM); in test [5] (Table 2, Example 2) it was 64 µg/mL (≈ 115 µM); in test [6] (Table 1, Example 1), 32 µg/mL (≈ 57.6 µM); in test [6] (Table 2, Example 2) it was 32 µg/mL (≈ 57.6 µM). The MIC in [7] is 4 µg/mL (≈ 7.2 µM); in [8], 2 µg/mL (≈ 3.6 µM); in test [9], 4 µg/mL (≈ 7.2 µM); in [10] it was 4 µg/mL (≈ 7.2 µM); in [11], 32 µg/mL (≈ 57.6 µM); in test [12], greater than 128 µg/mL. Further, the “activity against Gram-negative bacteria” value with Gram-negative bacteria is on record as “active”.
